From ChEMBL document CHEMBL5726596, “Pyrazolo pyrimidine derivatives and their use as MALT1 inhibitors” (2017)
pIC50: −log10 of the molar value.

Molecular target: T1, Mucosa-associated lymphoid tissue lymphoma translocation protein 1 (Homo sapiens, UniProt Q9UDY8)
T1 sequence (Q9UDY8 whole entry): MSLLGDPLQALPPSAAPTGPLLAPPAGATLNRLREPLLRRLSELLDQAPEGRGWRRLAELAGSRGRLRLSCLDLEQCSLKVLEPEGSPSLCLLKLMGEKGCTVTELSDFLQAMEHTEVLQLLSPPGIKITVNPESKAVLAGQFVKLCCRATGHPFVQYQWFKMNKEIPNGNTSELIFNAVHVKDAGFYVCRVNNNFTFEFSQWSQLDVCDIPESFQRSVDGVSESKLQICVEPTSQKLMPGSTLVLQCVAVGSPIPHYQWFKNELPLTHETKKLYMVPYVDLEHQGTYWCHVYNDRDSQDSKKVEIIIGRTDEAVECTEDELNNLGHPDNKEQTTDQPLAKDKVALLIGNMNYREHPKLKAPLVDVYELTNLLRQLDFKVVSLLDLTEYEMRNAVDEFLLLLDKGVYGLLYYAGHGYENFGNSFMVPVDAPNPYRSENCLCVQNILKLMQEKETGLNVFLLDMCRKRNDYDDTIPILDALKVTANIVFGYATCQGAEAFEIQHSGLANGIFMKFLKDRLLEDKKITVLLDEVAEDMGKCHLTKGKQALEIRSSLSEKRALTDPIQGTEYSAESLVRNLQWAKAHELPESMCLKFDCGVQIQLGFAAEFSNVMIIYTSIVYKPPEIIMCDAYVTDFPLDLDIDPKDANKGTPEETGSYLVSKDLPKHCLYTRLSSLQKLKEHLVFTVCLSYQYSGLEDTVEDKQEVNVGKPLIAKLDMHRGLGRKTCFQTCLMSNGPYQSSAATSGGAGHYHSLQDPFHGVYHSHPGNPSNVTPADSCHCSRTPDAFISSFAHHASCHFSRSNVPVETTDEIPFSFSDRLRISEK
Assay: The assay buffer consists of 200 mM Tris/HCl at pH 7.5, 0.8 M Na citrate, 100 μM EGTA, 100 μM DTT and 0.05% (w/v) CHAPS. […] Test compounds were dissolved in 100% (v/v) DMSO or a mixture containing 90% (v/v) DMSO and 10% (v/v) H2O at a stock concentration of 100 mM. Serial dilutions of test compounds were prepared using either 100% (v/v) DMSO or a mixture containing 90% (v/v) DMSO and 10% (v/v) H2O.

pIC50: 8.30
SMILES: CCOc1ncc(NC(=O)Nc2cnc3cc(Cl)nn3c2C(C)C)cc1Cl
